Molecules are shown by their SMILES. The source made the active and inactive calls. The rule behind the calls is not given here.

In general, IC50 refers to the midpoint of a concentration-inhibition curve. Broadly, the inhibition is how much of the control response was suppressed.

Assay [1] concerns HepG2. The assay can be described thus: Cell cycle arrest in human HepG2 cells at 500 to 2000 nM incubated for 24 hrs followed by compound washout measured after 24 hrs. The format is functional, cell-based.
Assay [2] in a line: Cell cycle arrest in human PC3 cells at 500 to 2000 nM incubated for 24 hrs followed by compound washout measured after 24 hrs. It counts as functional, cell-based. Conditions: PC-3.
Assay [3] concerns RD. The assay can be described thus: Cell cycle arrest in human RD cells at 1000 to 2000 nM incubated for 24 hrs followed by compound washout measured after 24 hrs. The format is functional, cell-based.
Assay [4] has as its system RD. The assay can be described thus: Cytotoxicity against human RD cells assessed as growth inhibition after 48 hrs by MTT method. It counts as functional, cell-based. (Tetrazolium dyes change colour on reduction, which living cells bring about.)
Assay [5] deals with HepG2. The assay is described as follows: Induction of apoptosis in human HepG2 cells after 48 hrs by annexin-V/propidium iodide staining-based flow cytometry. It counts as functional, cell-based.
In assay [6] the test system is RD. The assay is described as follows: Cell cycle arrest in human RD cells assessed as rounded cells at 500 nM after 24 hrs by propidium iodide staining-based flow cytometry. The format is functional. (A flow cytometer gives signals particle by particle.)
The subject of assay [7] is HepG2. The assay can be described thus: Cell cycle arrest in human HepG2 cells assessed as rounded cells at 500 nM after 24 hrs by propidium iodide staining-based flow cytometry. It counts as functional.
In assay [8] the test system is HepG2. The assay is described as follows: Cell cycle arrest in human HepG2 cells assessed as accumulation at G2/M phase at 500 nM after 24 hrs by propidium iodide staining-based flow cytometry. The format is functional.
Assay [9] has as its system RD. The assay can be described thus: Cell cycle arrest in human RD cells assessed as accumulation at G2/M phase at 500 nM after 24 hrs by propidium iodide staining-based flow cytometry. It counts as functional.
The nature of assay [10]: Cell cycle arrest in human PC3 cells assessed as accumulation at G2/M phase at 500 nM after 24 hrs by propidium iodide staining-based flow cytometry. The format is functional. Conditions: PC-3.
Assay [11] is described as follows: Cell cycle arrest in human PC3 cells assessed as rounded cells at 500 nM after 24 hrs by propidium iodide staining-based flow cytometry. It counts as functional. As to conditions: PC-3.
Assay [12] deals with RD. The assay is described as follows: Cell cycle arrest in human RD cells at 500 nM incubated for 24 hrs followed by compound washout measured after 24 hrs. It counts as functional, cell-based.
Assay [13] has as its system HeLa. The assay is described as follows: Cell cycle arrest in human HeLa cells assessed as accumulation at G2/M phase at 20 nM by propidium iodide staining-based flow cytometry. The format is functional.
The subject of assay [14] is HeLa. The assay is described as follows: Induction of apoptosis in human HeLa cells assessed as failure of MT elongation at 100 nM by immunofluorescence analysis. The format is functional, cell-based.
Assay [15] deals with HeLa. The assay can be described thus: Induction of apoptosis in human HeLa cells assessed as unstructured tubulin foci at 100 nM by immunofluorescence analysis. It counts as functional, cell-based.
In assay [16] the test system is HeLa. The assay is described as follows: Induction of apoptosis in human HeLa cells assessed as short, aberrantly shaped, tripolar or multipolar microtubule microtubule at 20 nM by immunofluorescence analysis. It counts as functional, cell-based.
For assay [17], the system named is K562. The assay is described as follows: Cell cycle arrest in human K562 cells assessed as mitotic index at 0.1 nM (reference value: 3 +/- 1%). The format is functional.
The nature of assay [18]: cells. Conditions: Homo sapiens, HCT-15, 72 h.
Description: Cytotoxicity against human HCT15 cells assessed as growth inhibition after 72 hrs by CellTitre-Glo assay
Assay [19] has as its system HeLa. The assay can be described thus: Induction of apoptosis in human HeLa cells assessed as failure of MT elongation at 20 nM by immunofluorescence analysis. It counts as functional, cell-based.
In assay [20] the test system is RD. The assay can be described thus: Induction of apoptosis in human RD cells at 500 to 2000 nM after 48 hrs by annexin-V/propidium iodide staining-based flow cytometry. The format is functional, cell-based.
Assay [21] has as its system PC-3. The assay is described as follows: Induction of apoptosis in human PC3 cells after 48 hrs by annexin-V/propidium iodide staining-based flow cytometry. The format is functional, cell-based.
Assay [22] deals with Tubulin. The assay is described as follows: Inhibition of tubulin (unknown origin) polymerization incubated 15 mins prior to GTP addition by spectrophotometry. The format is protein-complex assay, Homo sapiens.
A short description of assay [23]: Cytotoxicity against human MESSA cells assessed as growth inhibition after 72 hrs by CellTitre-Glo assay. It counts as functional, cell-based. As to conditions: MES-SA.
Assay [24] has as its system MCF7. The assay can be described thus: Cytotoxicity against human MCF7 cells after 96 hrs by Giemsa staining-based light microscopy. The format is functional, cell-based. Conditions: MCF7, 96 h.
Assay [25] has as its system HepG2. The assay is described as follows: Cytotoxicity against human HepG2 cells assessed as growth inhibition after 48 hrs by MTT method. The format is functional, cell-based. As to conditions: HepG2, 48 h.
For assay [26], the system named is K562. The assay is described as follows: Cytotoxicity against human K562 cells assessed as growth inhibition after 96 hrs by Giemsa staining-based light microscopy. The format is functional, cell-based. As to conditions: K562, 96 h.
Assay [27] is described as follows: Inhibition of hedgehog signaling in mouse NIH/3T3 Shh-Light II cells after 48 hrs by luciferase reporter gene assay. The format is functional, cell-based. On the technique in general: Reporter assays use an easily measured gene product as a stand-in for the process of interest.
The nature of assay [28]: Cytotoxicity against human MESSA/DX5 cells assessed as growth inhibition after 72 hrs by CellTitre-Glo assay. Conditions: MES-SA/Dx5, 72 h. The format is functional, cell-based.
For assay [29], the system named is HepG2. The assay can be described thus: Induction of apoptosis in human HepG2 cells at 500 to 2000 nM after 48 hrs by annexin-V/propidium iodide staining-based flow cytometry. The format is functional, cell-based.
Assay [30] concerns the target Tubulin (Homo sapiens) (UniProt P68371+Q9H4B7+P0DPH7+P68366+Q13509+Q71U36+P04350+Q3ZCM7+P07437+P68363+Q9BQE3+Q6PEY2+Q13885+Q9BVA1+Q9BUF5). The assay is described as follows: Displacement of [3H]colchicine from tubulin (unknown origin) at 5 uM after 10 mins. It counts as protein-complex assay.
Assay [31] relates to K562. The assay is described as follows: Cell cycle arrest in human K562 cells assessed as mitotic index at 10 times IC50 (reference value: […] +/- […]%). The format is functional.
Assay [32] in a line: Cytotoxicity against human PC3 cells assessed as growth inhibition after 48 hrs by MTT method. The format is functional, cell-based. Conditions: PC-3, 48 h.
Assay [33] is described as follows: Cytotoxicity against human D283 cells. The format is functional, cell-based.
The subject of assay [34] is K562. The assay can be described thus: Cell cycle arrest in human K562 cells assessed as mitotic index at 4 uM (reference value: 3 +/- 1%).
The subject of assay [35] is HeLa. The assay can be described thus: Induction of apoptosis in human HeLa cells assessed as short, aberrantly shaped, tripolar or multipolar microtubule at 100 nM by immunofluorescence analysis. It counts as functional, cell-based.
For assay [36], the system named is A549. The assay can be described thus: Cytotoxicity against human A549 cells assessed as growth inhibition after 48 hrs by MTT method. It counts as functional, cell-based. Conditions: A549, 48 h.
Assay [37] concerns HT-29. The assay can be described thus: Cytotoxicity against human HT-29 cells assessed as growth inhibition after 48 hrs by MTT method. The format is functional, cell-based. Conditions: HT-29, 48 h.
The test system of assay [38] is MCF7. The assay can be described thus: Cell cycle arrest in human MCF7 cells expressing exogenous caspase-3 at 100 nM by immunofluorescence microscopy. It counts as functional, cell-based.
Assay [39] deals with HeLa. The assay is described as follows: Cell cycle arrest in human HeLa cells by propidium iodide staining-based flow cytometry. The format is functional.
Assay [40] relates to HeLa. The assay can be described thus: Cell cycle arrest in human HeLa cells assessed as mitotic rounded-up phenotype at 100 nM by light microscopy. The format is functional, cell-based.
Assay [41] is described as follows: cells. As to conditions: Homo sapiens, OVCAR-8, 96 h.
Description: Cytotoxicity against human OVCAR8 cells assessed as growth inhibition after 96 hrs by Giemsa staining-based light microscopy
Assay [42] has as its system HeLa. The assay can be described thus: Cell cycle arrest in human HeLa cells assessed as accumulation at G2/M phase at 100 nM by propidium iodide staining-based flow cytometry. It counts as functional.
Assay [43] in a line: Cytotoxicity against human HCT116 cells assessed as growth inhibition after 48 hrs by MTT method. The format is functional, cell-based. Conditions: HCT-116, 48 h.
In assay [44] the test system is MCF7. The assay can be described thus: Cell cycle arrest in human MCF7 cells at 100 nM by immunofluorescence microscopy. The format is functional, cell-based.
For assay [45], the system named is HeLa. The assay is described as follows: Cytotoxicity against human HeLa cells assessed as growth inhibition after 48 hrs by MTT method. It counts as functional, cell-based.
Assay [46] deals with NCI/ADR-RES. The assay can be described thus: Cytotoxicity against human NCI/ADR-RES cells assessed as growth inhibition after 96 hrs by Giemsa staining-based light microscopy. The format is functional, cell-based.
Assay [47] has as its system HeLa. The assay can be described thus: Cell cycle arrest in human HeLa cells assessed as mitotic rounded-up phenotype at 20 nM by light microscopy. It counts as functional, cell-based.

Regarding `CC(=O)O[C@H]1C(=O)[C@@]2(C)[C@H]([C@H](OC(=O)c3ccccc3)[C@]3(O)C[C@H](OC(=O)[C@H](O)[C@@H](NC(=O)c4ccccc4)c4ccccc4)C(C)=C1C3(C)C)[C@]1(OC(C)=O)CO[C@@H]1C[C@@H]2O` [PACLITAXEL], the outcome in [1], in assay [2] and in [3] was inactive. Moreover, in assay [4], the IC50 turned out to be 14200 nM. In [5], the Activity entry is “Dose-dependent effect”. Also, the outcome in assay [6], in [7], in [8], in assay [9], in [10] and in [11] was Active. The outcome in [12] was Active.
As to `COc1ccc(/C=C\c2cc(OC)c(OC)c(OC)c2)cc1O` [COMBRETASTATIN A4], the outcome in [13], in assay [14], in assay [15], in assay [16] and in [19] was Active. Moreover, the Activity in assay [17] was found to be 65%. In assay [18], this molecule registered an IC50 of 39 nM.
Turning to `COc1cc(C(=O)c2ccn(-c3cccc(NC(=N)N)c3)c2)cc(OC)c1OC.Cl`, the outcome in [20], in assay [6], in assay [7], in assay [8], in [29] and in assay [9] was Active. Also, the outcome in assay [10], in assay [11] and in assay [12] was Active. Also, the values for the Activity result in [21] and in [31] were “Dose-dependent effect” and 71%, respectively. Also, the outcome in [1] was inactive. Further, the IC50 in [22] is 1200 nM; in assay [23], 14 nM; in assay [24], 20 nM; in assay [25] it was 49.5 nM; in assay [4], 803 nM; in [26], 25 nM. Besides, the results for the half-inhibitory concentration (IC50) in assay [28], in assay [32] and in assay [33] were 16 nM, 3.9 nM and 675 nM, respectively. Moreover, the values for the inhibition result in assay [27] and in assay [30] were “Dose-dependent effect” and 87%, respectively.
Turning to `COc1cc(C(=O)c2ccn(-c3cccc(NC(C)C)c3)c2)cc(OC)c1OC`, the IC50 in assay [22] was found to be 2500 nM; in [24], 20 nM; in assay [26], 500 nM. Moreover, the Activity in assay [34] is given as 69%. This molecule also showed an inhibition in [30] of 53%.
`COc1cc(C(=O)c2ccn(-c3ccccc3)c2)cc(OC)c1OC`: the outcome in assay [35], in assay [13], in assay [40] and in [42] was Active. Also, the 50% inhibitory concentration (IC50) was 200 nM in assay [36]; 90 nM in assay [37]; 1500 nM in [22]; 45 nM in assay [41]; 56 nM in [23]; 700 nM in assay [24]. Moreover, the IC50 in assay [43] was found to be 77 nM; in assay [45], 100 nM; in assay [46], 20 nM. The outcome in [38] and in [44] was inactive. Further, the Activity entry in assay [39] is “Dose-dependent effect”. In [30], this molecule came in with an inhibition of 80%.
Turning to `COc1cc(C(=O)c2ccn(-c3cccc(N4CCCC4)c3)c2)cc(OC)c1OC`, the IC50 in assay [22] was 2500 nM; in assay [24], 16 nM; in assay [26], 950 nM. The Activity in assay [34] is reported as 39%. Also, in [30], the inhibition is 23%.
Consider `CC[C@]1(O)C[C@@H]2CN(CCc3c([nH]c4ccccc34)[C@@](C(=O)OC)(c3cc4c(cc3OC)N(C)[C@H]3[C@@](O)(C(=O)OC)[C@H](OC(C)=O)[C@]5(CC)C=CCN6CC[C@]43[C@@H]65)C2)C1` [VINBLASTINE], for which the result in [13], in assay [6], in assay [47], in assay [9], in assay [10] and in assay [11] was Active. Moreover, the outcome in assay [12] was Active. For the same molecule, the outcome in assay [1], in assay [2] and in [3] was inactive. The IC50 in assay [41] turned out to be 15 nM; in [23], 3 nM; in assay [25], 80.7 nM; in assay [4], 52.5 nM; in [28], 144 nM.

The values above are taken from ChEMBL document CHEMBL3351435, “New pyrrole derivatives with potent tubulin polymerization inhibiting activity as anticancer agents including hedgehog-dependent cancer” (J Med Chem, 2014).
